Reference: PubChem BioAssay AID977614 (Broad Institute, 2014)
Activity calls are given as the source filed them.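 Rule for the calls: active = parasite count per well reduced by over 3 SD from the mean, with host cell number above 80% of untreated; inactive = the rest.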

Tested on: L. donovani amastigotes in THP-1 macrophages, DAPI imaging, 72 h
Experiment: antileishmanial activity in infected macrophages – imaging, THP-1 host macrophages, single concentration (AID 977614);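 note: signal is the parasite per host cell ratio from DAPI stained kinetoplasts and nuclei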

Row | Compound | AC50
1 | COc1ccccc1S(=O)(=O)N(C)C[C@H]1OCc2cn(nn2)CCCC(=O)N([C@@H](C)CO)C[C@@H]1C | > 10 µM (inactive)
2 | O=C(c1ccccn1)N1C[C@@H]2[C@H](c3ccccc31)[C@H](CO)N2C(=O)C1CCCCC1 | > 10 µM (inactive)
3 | COc1ccc(NC(=O)N(C)C[C@H]2OCc3cnnn3CCCC(=O)N([C@H](C)CO)C[C@@H]2C)c(OC)c1 | > 10 µM (inactive)
4 | CCCN(C[C@H]1N[C@H](CO)[C@@H]1c1ccccc1)C(=O)COC | > 10 µM (inactive)
5 | CCC(=O)N1[C@H](CN(CC)C(=O)c2cccc(F)c2)[C@H](c2ccccc2)[C@@H]1CO | > 10 µM (inactive)
6 | CCN(C[C@H]1[C@@H](c2ccccc2)[C@H](CO)N1CC1CC1)C(=O)c1ccccn1 | > 10 µM (inactive)
7 | CNC[C@@H]1OCc2cn(nn2)CCCC(=O)N([C@H](C)CO)C[C@H]1C | > 10 µM (inactive)
8 | CC(=O)N1[C@@H](CO)[C@H](c2ccccc2)[C@@H]1CN(CC(C)C)C(=O)c1ccccn1 | > 10 µM (inactive)
9 | CC(C)NC(=O)N1[C@H](CO)[C@H]2c3ccccc3NC[C@H]21 | > 10 µM (inactive)
10 | C[C@@H]1CN([C@H](C)CO)C(=O)CCCn2cc(nn2)CO[C@H]1CN(C)S(=O)(=O)c1ccc(-n2cccn2)cc1 | > 10 µM (inactive)
11 | C/C=C/c1ccc([C@H]2[C@@H](CO)N[C@@H]2CN(CC)C(=O)CN2CCOCC2)cc1 | > 10 µM (inactive)
12 | O=C(CC(F)(F)F)N1C[C@@H]2[C@H](c3ccccc31)[C@H](CO)N2CC1CCOCC1 | > 10 µM (inactive)
13 | C[C@H]1CN([C@@H](C)CO)C(=O)CCCn2nncc2CO[C@@H]1CN(C)S(=O)(=O)c1ccccc1C#N | > 10 µM (inactive)
14 | CCC(=O)N1[C@H](CO)[C@H](c2ccc(C#CC3CCCCC3)cc2)[C@@H]1CNC(C)C | > 10 µM (inactive)
15 | C/C=C/c1ccc([C@@H]2[C@H](CO)N[C@H]2CN(CC(C)C)C(=O)c2ccccn2)cc1 | > 10 µM (inactive)
16 | C[C@H](CO)N1C[C@H](C)[C@H](CN(C)C(=O)Nc2ccnc(N3CCOCC3)c2)OCc2cnnn2CCCC1=O | > 10 µM (inactive)
17 | CCN(C[C@H]1[C@H](c2ccccc2)[C@H](CO)N1C(C)=O)C(=O)NC1CCCC1 | > 10 µM (inactive)
18 | Cc1cccc(S(=O)(=O)N2C[C@@H]3[C@H](c4ccccc42)[C@H](CO)N3C(=O)c2ccccc2)c1 | > 10 µM (inactive)
19 | CCC(=O)N1C[C@H]2[C@@H](c3ccccc31)[C@H](CO)N2Cc1ccc(F)cc1 | > 10 µM (inactive)
20 | CN(C[C@H]1N[C@@H](CO)[C@H]1c1ccc(-c2cccc(F)c2)cc1)C(=O)CC1CC1 | > 10 µM (inactive)
21 | COCCNC[C@H]1[C@@H](c2ccccc2)[C@@H](CO)N1c1nc(C)c(C)s1 | > 10 µM (inactive)
22 | CCN(C[C@@H]1[C@@H](c2ccc(-c3cccnc3)cc2)[C@@H](CO)N1C(C)=O)C(C)=O | > 10 µM (inactive)
23 | C[C@H](CO)N1C[C@H](C)[C@H](CN(C)C(=O)c2ccc3ccn(C)c3c2)OCc2cnnn2CCCC1=O | > 10 µM (inactive)
24 | CC(=O)N1[C@H](CO)[C@H](c2ccccc2)[C@@H]1CN(C)S(=O)(=O)c1ccccc1 | > 10 µM (inactive)
25 | CC(=O)N1[C@@H](CO)[C@@H](c2ccccc2)[C@@H]1CN(CC1CCC1)C(=O)CN(C)C | > 10 µM (inactive)
26 | C[C@@H]1CN([C@@H](C)CO)C(=O)CCCn2nncc2CO[C@H]1CN(C)C(=O)Oc1cccc2ccccc12 | > 10 µM (inactive)

Row | Compound | AC50
27 | CNC[C@H]1OCc2cn(nn2)CCCC(=O)N([C@H](C)CO)C[C@H]1C | > 10 µM (inactive)
28 | O=C(CC(F)(F)F)N1C[C@@H]2[C@H](c3ccccc31)[C@@H](CO)N2C(=O)c1ccncc1 | > 10 µM (inactive)
29 | O=C(CC(F)(F)F)N1C[C@@H]2[C@H](c3ccccc31)[C@H](CO)N2Cc1cccnc1 | > 10 µM (inactive)
30 | COc1ccccc1-c1ccc([C@H]2[C@@H](CO)N(C(C)=O)[C@@H]2CN(C)C(C)=O)cc1 | > 10 µM (inactive)
31 | CCCNC(=O)N1[C@H](CO)[C@@H]2c3ccccc3N(C(=O)c3ccncc3)C[C@@H]21 | > 10 µM (inactive)
32 | C[C@@H]1CN([C@H](C)CO)C(=O)CCCn2nncc2CO[C@@H]1CN(C)C(=O)Nc1ccc2c(c1)OCCO2 | > 10 µM (inactive)
33 | C/C=C/c1ccc([C@@H]2[C@@H](CN(CC)C(=O)CN(C)C)N(C(C)=O)[C@H]2CO)cc1 | > 10 µM (inactive)
34 | COc1ccc(CN(C)C[C@H]2OCc3cnnn3CCCC(=O)N([C@@H](C)CO)C[C@H]2C)cc1 | > 10 µM (inactive)
35 | CCN(C[C@H]1[C@H](c2ccccc2)[C@H](CO)N1CC1CC1)C(=O)c1ccccn1 | > 10 µM (inactive)
36 | COCC(=O)N(C[C@H]1N[C@H](CO)[C@@H]1c1ccc(-c2cncnc2)cc1)C(C)C | > 10 µM (inactive)
37 | CNC[C@@H]1OCc2cnnn2CCCC(=O)N([C@H](C)CO)C[C@H]1C | > 10 µM (inactive)
38 | O=C(NC[C@@H]1[C@@H](c2ccccc2)[C@H](CO)N1Cc1cccnc1)c1ccccn1 | > 10 µM (inactive)
39 | C[C@@H]1CN([C@@H](C)CO)C(=O)CCCn2nncc2CO[C@@H]1CN(C)C(=O)CCC(F)(F)F | > 10 µM (inactive)
40 | C[C@H](CO)N1C[C@H](C)[C@H](CN(C)CC2CCCCC2)OCc2cnnn2CCCC1=O | > 10 µM (inactive)
41 | C[C@@H]1CN([C@H](C)CO)C(=O)CCCn2nncc2CO[C@@H]1CN(C)C(=O)CCC(F)(F)F | > 10 µM (inactive)
42 | OC[C@@H]1[C@H](c2ccc(-c3ccc(F)cc3)cc2)[C@H](CNC2CCCC2)N1CCC(F)(F)F | > 10 µM (inactive)
43 | O=S(=O)(c1ccc(F)cc1)N1C[C@@H]2[C@H](c3ccccc31)[C@H](CO)N2Cc1ccccc1Cl | > 10 µM (inactive)
44 | COc1ccc(NC(=O)N2C[C@@H]3[C@H](c4ccccc42)[C@H](CO)N3Cc2ccccn2)cc1 | > 10 µM (inactive)
45 | C[C@@H]1CN([C@@H](C)CO)C(=O)CCCn2nncc2CO[C@@H]1CN(C)C(=O)c1ccc(N2CCN(C)CC2)cc1 | > 10 µM (inactive)
46 | O=C(NC[C@H]1[C@@H](c2ccccc2)[C@H](CO)N1C(=O)Cc1ccncc1)C1CCC1 | > 10 µM (inactive)
47 | O=C(c1ccccc1F)N1C[C@@H]2[C@H](c3ccccc31)[C@@H](CO)N2Cc1ccc2c(c1)OCO2 | > 10 µM (inactive)
48 | N#Cc1cccc(-c2ccc([C@H]3[C@@H](CO)N[C@@H]3CNC(=O)C3CCC3)cc2)c1 | > 10 µM (inactive)
49 | COCC(=O)NC[C@H]1[C@@H](c2ccccc2)[C@@H](CO)N1C(=O)c1ccccc1 | > 10 µM (inactive)
50 | CCC(=O)N1[C@H](CO)[C@H](c2ccccc2)[C@@H]1CN(CC)C(=O)c1cccc(F)c1 | > 10 µM (inactive)
51 | CC(=O)N1[C@H](CO)[C@H](c2ccccc2)[C@H]1CN(C)S(=O)(=O)c1ccccc1 | > 10 µM (inactive)
52 | CC(C)N(C[C@H]1[C@H](c2ccccc2)[C@H](CO)N1S(C)(=O)=O)C(=O)CN(C)C | > 10 µM (inactive)

Row | Compound | AC50
53 | Cc1cccc(S(=O)(=O)N2C[C@H]3[C@@H](c4ccccc42)[C@@H](CO)N3CC2CCCC2)c1 | > 10 µM (inactive)
54 | CN(C[C@H]1N[C@@H](CO)[C@H]1c1ccc(-c2ccc(F)cc2)cc1)C(=O)C1CCC1 | > 10 µM (inactive)
55 | CC(=O)NC[C@@H]1[C@@H](c2ccc(C#Cc3ccccc3F)cc2)[C@@H](CO)N1C(C)=O | > 10 µM (inactive)
56 | CN(C[C@H]1N[C@@H](CO)[C@@H]1c1ccccc1)C(=O)c1ccccn1 | > 10 µM (inactive)
57 | COCC(=O)N(C)C[C@H]1[C@@H](c2ccccc2)[C@H](CO)N1C(=O)Cc1ccncc1 | > 10 µM (inactive)
58 | C/C=C/c1ccc([C@H]2[C@@H](CO)N[C@@H]2CN(Cc2cccnc2)C(=O)C2CC2)cc1 | > 10 µM (inactive)
59 | C[C@@H]1CN([C@H](C)CO)C(=O)CCCn2cc(nn2)CO[C@H]1CN(C)C(=O)Oc1ccc2ccccc2c1 | > 10 µM (inactive)
60 | CC(C)NC(=O)N1[C@H](CO)[C@@H](c2ccccc2)[C@H]1CN(C)C(=O)c1cccnc1 | > 10 µM (inactive)
61 | COc1ccccc1NC(=O)N1C[C@@H]2[C@H](c3ccccc31)[C@H](CO)N2CC1CCOCC1 | > 10 µM (inactive)
62 | CC(C)N(C[C@@H]1[C@@H](c2ccccc2)[C@H](CO)N1S(C)(=O)=O)C(=O)CN(C)C | > 10 µM (inactive)
63 | C[C@H]1CN([C@@H](C)CO)C(=O)CCCn2cc(nn2)CO[C@@H]1CN(C)C(=O)NC1CCCCC1 | > 10 µM (inactive)
64 | CCC(=O)NC[C@H]1N[C@H](CO)[C@@H]1c1ccc(-c2cccnc2)cc1 | > 10 µM (inactive)
65 | C[C@@H]1CN([C@H](C)CO)C(=O)CCCn2nncc2CO[C@@H]1CN(C)Cc1ccc(C(=O)Nc2ccccc2N)cc1 | > 10 µM (inactive)
66 | COCC(=O)N1[C@@H]2CN(C(=O)Nc3ccccc3Cl)c3ccccc3[C@@H]2[C@@H]1CO | > 10 µM (inactive)
67 | C[C@@H]1CN([C@@H](C)CO)C(=O)CCCn2nncc2CO[C@@H]1CN(C)CC1CCCCC1 | > 10 µM (inactive)
68 | COCCNC[C@@H]1[C@@H](c2ccccc2)[C@@H](CO)N1c1nc(C)c(C)s1 | > 10 µM (inactive)
69 | C[C@H]1CN([C@@H](C)CO)C(=O)CCCn2nncc2CO[C@H]1CN(C)Cc1cccc(C(F)(F)F)c1 | > 10 µM (inactive)
70 | CNC[C@@H]1OCc2cn(nn2)CCCC(=O)N([C@@H](C)CO)C[C@@H]1C | > 10 µM (inactive)
71 | CN1C[C@@H]2[C@H](c3ccccc31)[C@H](CO)N2C(=O)c1cccnc1 | > 10 µM (inactive)
72 | COCC(=O)N1C[C@@H]2[C@H](c3ccccc31)[C@@H](CO)N2Cc1cc(F)ccc1F | > 10 µM (inactive)
73 | CCCNC(=O)N1C[C@@H]2[C@H](c3ccccc31)[C@H](CO)N2Cc1cccc(OC)c1 | > 10 µM (inactive)
74 | COCCNC[C@@H]1[C@H](c2ccccc2)[C@H](CO)N1c1nc(C)c(C)s1 | > 10 µM (inactive)
75 | O=C(Nc1cccc(Cl)c1)N1C[C@H]2[C@@H](c3ccccc31)[C@@H](CO)N2Cc1cccnc1 | > 10 µM (inactive)
76 | CCC(=O)NC[C@H]1[C@@H](c2ccc(-c3ccc(F)cc3)cc2)[C@@H](CO)N1C(=O)CC | > 10 µM (inactive)
77 | C[C@H](CO)N1C[C@H](C)[C@H](CN(C)S(=O)(=O)c2ccc(-n3cccn3)cc2)OCc2cn(nn2)CCCC1=O | > 10 µM (inactive)
